The numbers were not newly measured in patent US20080200510A1, “Combination of Organic Compounds” (priority 2005, published 2008), which cites them from elsewhere.

One series has as its system diet-induced obesity. The settings on record: preclinical studies; by decreasing body weight, food intake, regulating circulating lipids and energy balance.
Experiment in series [1]: not given
This is another data set of the same source.

As to `N#C[C@@H]1CCCN1C(=O)CNC12CC3CC(CC(O)(C3)C1)C2` [Vildagliptin, (S)-1-[(3-hydroxy-1-adamantyl)amino]acetyl-2-cyano-pyrrolidine], for the setting “agent alone, by preserving the incretin effects”, the glycemia entry is listed as “improves glycemia”.
Take `Cc1c(C(=O)NN2CCCCC2)nn(-c2ccc(Cl)cc2Cl)c1-c1ccc(Cl)cc1` [rimonabant, N-piperidino-5-(4-chlorophenyl)-1-(2,4-dichlorophenyl)-4-methylpyrazole-3-carboxamide]: for the setting “agent by itself”, the body weight result is “reduction in body weight” and the food intake entry was “decrease in food intake”. Moreover, the “reversal of diet-induced obesity” value in the series with diet-induced obesity is “effective in reversing diet-induced obesity”. In addition, the “body weight reduction in clinic” value in series [1] is recorded as “highly effective to produce body weight reduction”.
